Values after ≈ are worked out from the molar mass of the structure shown.
Experiments:
E. faecalis ATCC29212 [1] = conditions: cited from earlier work
E. faecalis ATCC29212 [2] = experiment: FaAST (FDAA metabolic labeling method); assay type: cell-based, Enterococcus faecalis; conditions: unit assumed
Procedure: (§1) Take the colony to be tested that has been cultured overnight on the plate and fully mix it in normal saline to make a uniform bacterial solution. Dilute it into Cation-Adjusted Mueller Hinton Broth (CAMHB) culture medium to make a bacterial solution with OD600=0.05. • 2. Add 45 μl antibiotic solutions of different concentrations to 96-well plates (see Table 1 for antibiotic concentration gradient settings). • 3. Add 50 μl of the bacterial solution prepared in step 1 to the 96-well plate and mix well. • 4. Add 5 μl of 10 mM Cy5-DAA probe (final concentration 0.15 mM, see FIG. 1 for its structure) into each well, mix well, and cultivate in dark for 2 hours. • 5. Add 200 μl After PBS solution is diluted, the fluorescence intensity of each sample is detected by flow cytometry. The flow detection results are shown in FIG. 4-5, showing the curve of the change of antibiotic concentration gradient and fluorescence intensity. The MIC (minimum inhibitory concentration) can be obtained by referring to this curve.
(§2) Bacteria with antibiotic resistance are shown in bold in the following table.

E. faecium Ef26 [3] = experiment: BMD susceptibility test; assay type: cell-based, Enterococcus faecium; conditions: unit assumed
[4] = system: Staphylococcus aureus SA31; experiment: VITEK drug sensitivity test; assay type: cell-based; conditions: unit assumed
[5] = system: Staphylococcus aureus SA22; experiment: VITEK drug sensitivity test; assay type: cell-based; conditions: unit assumed
E. faecium Ef26 [6] = experiment: FaAST (FDAA metabolic labeling method); assay type: cell-based, Enterococcus faecium; conditions: unit assumed
Procedure: as §1, §2

E. faecium Ef28 [7] = experiment: FaAST (FDAA metabolic labeling method); assay type: cell-based, Enterococcus faecium; conditions: unit assumed
Procedure: as §1, with “The flow detection results are shown in FIG. 4-5, showing the curve of the change of antibiotic concentration gradient and fluorescence intensity.” left out

[8] = system: alveolar lavage fluid sample 0206, A. baumannii; experiment: BMD susceptibility test of patient alveolar lavage fluid; assay type: cell-based, Acinetobacter baumannii; conditions: unit assumed
Excerpt: (§3) The results of antimicrobial susceptibility test of alveolar lavage fluid of seven patients using FDAA and BMD methods are shown in the following table. The drug-resistant bacteria are shown in bold.

[9] = system: alveolar lavage fluid sample 0130, A. baumannii; experiment: as above; assay type: cell-based, Acinetobacter baumannii; conditions: unit assumed
Excerpt: as §3

[10] = system: alveolar lavage fluid sample 0219, A. baumannii; experiment: as above; assay type: cell-based, Acinetobacter baumannii; conditions: unit assumed
Excerpt: as §3

E. faecalis ATCC29212 [11] = experiment: BMD susceptibility test; assay type: cell-based, Enterococcus faecalis; conditions: unit assumed
S. aureus Sa23 [12] = experiment: BMD susceptibility test; assay type: cell-based, Staphylococcus aureus; conditions: unit assumed
[13] = system: alveolar lavage fluid sample 0204, A. baumannii; experiment: FaAST (FDAA) susceptibility test of patient alveolar lavage fluid; assay type: cell-based, Acinetobacter baumannii; conditions: unit assumed
Procedure: (§4) With reference to the flow chart of the rapid detection method of antimicrobial susceptibility test based on FDAA metabolic markers shown in FIG. 3, FDAA is used for the detection of antimicrobial susceptibility test of alveolar lavage fluid. The specific experimental steps are as follows: • 1. Mix bronchoalveolar lavage fluid (BALF, 10 ml) of patients with hospital acquired pneumonia with cation regulated broth medium (CAMHB, 10 ml) of twice the concentration to prepare the bacterial fluid to be tested. • 2. Add 45 μl antibiotic solutions of different concentrations to the 96-well plate separately (see Table 1 for antibiotic concentration gradient settings). • 3. Add 50 μl of the bacterial solution prepared in step 1 to the 96-well plate and mix well. • 4. Add 5 μl of 10 mM Cy5-DAA probe (final concentration 0.15 mM, see FIG. 1 for its structure) into each well, mix well, and then cultivate in dark for 2 hours. • 5. Add 200 μl PBS solution for dilution, and then use flow cytometry to detect the fluorescence intensity of each sample.
as §3

[14] = system: alveolar lavage fluid sample 0206, A. baumannii; experiment: as above; assay type: cell-based, Acinetobacter baumannii; conditions: unit assumed
Procedure: as §4, §3

[15] = system: alveolar lavage fluid sample 0130, A. baumannii; experiment: as above; assay type: cell-based, Acinetobacter baumannii; conditions: unit assumed
Procedure: as §4, §3

[16] = system: alveolar lavage fluid sample 0219, A. baumannii; experiment: as above; assay type: cell-based, Acinetobacter baumannii; conditions: unit assumed
Procedure: as §4, §3

[17] = system: alveolar lavage fluid sample 0203, K. pneumoniae; experiment: as above; assay type: cell-based, Klebsiella pneumoniae; conditions: unit assumed
Procedure: as §4, §3

[18] = system: alveolar lavage fluid sample 0226, K. pneumoniae; experiment: as above; assay type: cell-based, Klebsiella pneumoniae; conditions: unit assumed
Procedure: as §4, §3

[19] = system: Staphylococcus aureus SA31; experiment: FaAST with DAA-Tetra probe; assay type: cell-based; conditions: unit assumed
Procedure: The specific experimental steps are as follows: • 1. The tested colonies cultured overnight on the plate were picked and mixed thoroughly in 2× Cation-Adjusted Mueller Hinton Broth medium (2×CAMHB) to make bacterial suspension with turbidity of OD600=0.1. • 2. […] Add 50 μL of the bacterial solution prepared in step 1 (the final concentration of the bacterial solution is OD600=0.05) to the 96-well plate, and add 5 μL of 3 mM DAA-Tetra probe (the final concentration is 0.15 mM), mix well, and incubate in the dark at 37° C. 120 rpm for 2 hours. • 4. After culture, dilute the mixed bacterial solution 10 times with PBS solution, and detect the fluorescence intensity of each sample with flow cytometry. The flow detection result is shown in FIG. 14-19, and the arrow is for the MIC value. The minimum inhibitory concentration of antibiotics was obtained according to the fluorescence signal intensity of flow detection, and the statistical results are shown in Table 6.

S. aureus ATCC29213 [20] = experiment: BMD susceptibility test; assay type: cell-based, Staphylococcus aureus; conditions: unit assumed
[21] = system: Staphylococcus aureus SA22; experiment: FaAST with DAA-Cy5-2 probe; assay type: cell-based; conditions: unit assumed
Procedure: as §4
The specific steps are the same as in Example 5. […] The minimum inhibitory concentration of antibiotics was obtained according to the fluorescence signal intensity of flow detection, and the statistical results are shown in Table 7.

S. aureus Sa22 [22] = experiment: FaAST (FDAA metabolic labeling method); assay type: cell-based, Staphylococcus aureus; conditions: unit assumed
Procedure: as §1, §2

S. aureus Sa23 [23] = experiment: FaAST (FDAA metabolic labeling method); assay type: cell-based, Staphylococcus aureus; conditions: unit assumed
Procedure: as §1, §2

S. aureus ATCC29213 [24] = experiment: FaAST (FDAA metabolic labeling method); assay type: cell-based, Staphylococcus aureus; conditions: unit assumed
Procedure: as §1, §2

[25] = system: alveolar lavage fluid sample 0203, K. pneumoniae; experiment: BMD susceptibility test of patient alveolar lavage fluid; assay type: cell-based, Klebsiella pneumoniae; conditions: unit assumed
Excerpt: as §3

[26] = system: alveolar lavage fluid sample 0226, K. pneumoniae; experiment: as above; assay type: cell-based, Klebsiella pneumoniae; conditions: unit assumed
Excerpt: as §3

E. faecium Ef28 [27] = experiment: BMD susceptibility test; assay type: cell-based, Enterococcus faecium; conditions: unit assumed
S. aureus ATCC29213 [28] = conditions: cited from earlier work
S. aureus Sa22 [29] = experiment: BMD susceptibility test; assay type: cell-based, Staphylococcus aureus; conditions: unit assumed

In the case of CC(=O)NC[C@H]1CN(c2ccc(N3CCOCC3)c(F)c2)C(=O)O1 [Linezolid, linezolid], the “CLSI QC range” value (E. faecalis ATCC29212 [1]) is given as 1-4, the FaAST (MIC) (E. faecalis ATCC29212 [2]) is given as 2 µg/mL and the BMD (MIC) (E. faecium Ef26 [3]) is given as 2 µg/mL. It also gave an MIC, VITEK [4] of 1 µg/mL (≈ 2.96 µM), an MIC, VITEK [5] of 1 µg/mL (≈ 2.96 µM) and a FaAST (MIC) (E. faecium Ef26 [6]) of 2 µg/mL. The FaAST (MIC) (E. faecium Ef28 [7]) was 2 µg/mL, the BMD (MIC) [8] was 128 µg/mL and the BMD (MIC) [9] was 64 µg/mL. The BMD (MIC) [10] was 32 µg/mL, the BMD (MIC) (E. faecalis ATCC29212 [11]) was 1 µg/mL and the BMD (MIC) (S. aureus Sa23 [12]) was 8 µg/mL. For the same compound, the FaAST (MIC) [13] was 64 µg/mL, the FaAST (MIC) [14] was 64 µg/mL and the FaAST (MIC) [15] was 64 µg/mL. The FaAST (MIC) [16] was 16 µg/mL, the FaAST (MIC) [17] was 16 µg/mL and the FaAST (MIC) [18] was 16 µg/mL. The MIC, FaAST [19] was 1 µg/mL (≈ 2.96 µM), the BMD (MIC) (S. aureus ATCC29213 [20]) was 2 µg/mL and the MIC, FaAST [21] was 0.5 µg/mL (≈ 1.48 µM). The FaAST (MIC) (S. aureus Sa22 [22]) was 1 µg/mL, the FaAST (MIC) (S. aureus Sa23 [23]) was 8 µg/mL and the FaAST (MIC) (S. aureus ATCC29213 [24]) was 2 µg/mL. It also gave a BMD (MIC) [25] of 64 µg/mL, a BMD (MIC) [26] of 64 µg/mL and a BMD (MIC) (E. faecium Ef28 [27]) of 2 µg/mL. The “CLSI QC range” value (S. aureus ATCC29213 [28]) was 1-4 and the BMD (MIC) (S. aureus Sa22 [29]) was 2 µg/mL.

Reference: US20240240224A1, “FLUORESCENT D-TYPE AMINO ACID METABOLISM MARKER-BASED METHOD FOR DETECTING ANTIBACTERIAL DRUG SENSITIVITY TEST” (priority 2020, published 2024)
